This is an account of results in ChEMBL document CHEMBL3244191, “Study of the structural requirements for dopa potentiation and oxotremorine antagonism by L-prolyl-L-leucylglycinamide” (J Med Chem, 1978).

The structures appear in SMILES notation. Active and inactive are the calls of the source. The rule behind the calls is not given here. Square brackets hold non-standard residues; d marks the D form. Peptide text beside a SMILES is read from it. azaGly = NNC(=O)O; βAla = NCCC(=O)O

Type in all cases: functional, organism-based
In experiment [1] the test system is Mus musculus. Kind of experiment: Potentiation of dl-DOPA-induced behavioral effects in ICR mouse assessed as moderate piloerection, salivation, marked increased motor activity and irritability at 2.5 mg/kg, ip administered 1 hr prior to dl-DOPA-challenge measured for 1 hr. More on the design: dose 2.5 mg/kg.
Experiment [2] has as its system Mus musculus. Description: Potentiation of dl-DOPA-induced behavioral effects in ICR mouse assessed as moderate piloerection, salivation, marked increased motor activity and irritability at 10 mg/kg, ip administered 1 hr prior to dl-DOPA-challenge measured for 1 hr. More on the design: dose 10 mg/kg.
Experiment [3] relates to Mus musculus. Kind of experiment: Suppression of oxotremorine-induced tremor in ICR mouse at 20 mg/kg, ip pretreated for 1 hr followed by oxotremorine-challenge. More on the design: dose 20 mg/kg.
Experiment [4] has as its system Mus musculus. Description: Potentiation of dl-DOPA-induced behavioral effects in ICR mouse assessed as slight piloerection, slight salivation and slight increased motor activity at 2.5 mg/kg, ip administered 1 hr prior to dl-DOPA-challenge measured for 1 hr. More on the design: dose 2.5 mg/kg.
Experiment [5] deals with Mus musculus. Description: Potentiation of dl-DOPA-induced behavioral effects in ICR mouse assessed as slight piloerection, slight salivation and slight increased motor activity at 10 mg/kg, ip administered 1 hr prior to dl-DOPA-challenge measured for 1 hr. More on the design: dose 10 mg/kg.
For experiment [6], the system named is Mus musculus. Kind of experiment: Suppression of oxotremorine-induced tremor in ICR mouse at 10 mg/kg, ip pretreated for 1 hr followed by oxotremorine-challenge. More on the design: dose 10 mg/kg.
The subject of experiment [7] is Mus musculus. Kind of experiment: Potentiation of dl-DOPA-induced behavioral effects in ICR mouse assessed as marked piloerection, profuse salivation, marked increased irritability and reactivity, jumping, squeaking and aggressive fighting at 1 mg/kg, ip administered 1 hr prior to dl-DOPA-challenge measured for 1 hr. More on the design: dose 1 mg/kg.
For experiment [8], the system named is Mus musculus. Kind of experiment: Suppression of oxotremorine-induced tremor in ICR mouse at 1 mg/kg, ip pretreated for 1 hr followed by oxotremorine-challenge. More on the design: dose 1 mg/kg.
Experiment [9] relates to Mus musculus. Kind of experiment: Suppression of oxotremorine-induced tremor in ICR mouse at 4 mg/kg, ip pretreated for 1 hr followed by oxotremorine-challenge. More on the design: dose 4 mg/kg.
Experiment [10] relates to Mus musculus. Description: Potentiation of dl-DOPA-induced behavioral effects in ICR mouse assessed as marked piloerection, profuse salivation, marked increased irritability and reactivity, jumping, squeaking and aggressive fighting at 10 mg/kg, ip administered 1 hr prior to dl-DOPA-challenge measured for 1 hr. More on the design: dose 10 mg/kg.
Experiment [11] concerns Mus musculus. Kind of experiment: Potentiation of dl-DOPA-induced behavioral effects in ICR mouse assessed as marked piloerection, profuse salivation, marked increased irritability and reactivity, jumping, squeaking and aggressive fighting at 0.1 mg/kg, ip administered 1 hr prior to dl-DOPA-challenge measured for 1 hr. More on the design: dose 0.1 mg/kg.

With `CC(=O)CNC(=O)[C@H](CC(C)C)NC(=O)[C@@H]1CCCN1`, the result in the experiment on Mus musculus [1] and in the experiment with Mus musculus [2] was Active. For the same compound, the result with Mus musculus [3] was inactive.

For `CC(C)C[C@H](NC(=O)C1CCCC1)C(=O)NCC(N)=O`, the result with Mus musculus [4] and in the experiment on Mus musculus [2] was Active. The outcome with Mus musculus [3] was inactive.

With `CC(C)C[C@H](NC(=O)[C@@H]1CCCN1)C(=O)N1CSC[C@@H]1C(N)=O`, the result in the experiment with Mus musculus [5] was Active. Further, the result in the experiment on Mus musculus [3] was inactive.

Regarding `CC(C)C[C@H](NC(=O)[C@@H]1CCCN1)C(=O)NCC#N`, the result with Mus musculus [4] and in the experiment on Mus musculus [2] was Active. Also, in the experiment with Mus musculus [3], the outcome was inactive.

`CC(C)C[C@H](NC(=O)[C@H]1CSCN1)C(=O)NCC(N)=O`: the outcome with Mus musculus [6] and in the experiment with Mus musculus [3] was inactive. Besides, in the experiment with Mus musculus [5], the result was Active.

Consider `CC(C)C[C@H](NC(=O)[C@@H]1CCCN1)C(=O)NCC(N)=O` (H-Pro-Leu-Gly-NH2), for which the outcome in the experiment with Mus musculus [7], with Mus musculus [9], with Mus musculus [3], in the experiment on Mus musculus [10] and in the experiment with Mus musculus [11] was Active. In addition, the result with Mus musculus [8] was inactive.

On to `CNC(=O)CNC(=O)[C@H](CC(C)C)NC(=O)[C@@H]1CCCN1` (H-Pro-Leu-Gly-NHMe), for which, in the experiment with Mus musculus [5], the outcome was Active. Besides, the outcome in the experiment with Mus musculus [3] was inactive.

In the case of `CC(C)C[C@H](NC(=O)[C@@H]1CCCN1)C(=O)N1CCC[C@H]1C(N)=O` (H-Pro-Leu-Pro-NH2), in the experiment with Mus musculus [6], the outcome was inactive. The result in the experiment with Mus musculus [5] and in the experiment with Mus musculus [3] was Active.

In the case of `CC(C)C[C@H](NC(=O)[C@@H]1CCCN1)C(=O)NNC(N)=O` (H-Pro-Leu-[azaGly]-NH2), the outcome in the experiment with Mus musculus [5] was Active. In addition, the result with Mus musculus [3] was inactive.

For the compound `CC(C)C[C@H](NC(=O)[C@@H]1CCCN1)C(=O)NCCC(N)=O` (H-Pro-Leu-[βAla]-NH2), the outcome in the experiment with Mus musculus [5] was Active. The result with Mus musculus [3] was inactive.

`CC(C)C[C@H](NC(=O)[C@@H]1CCCN1)C(=O)N1CCSC1C(N)=O` (single isomer, unassigned; (-)): the outcome with Mus musculus [4] and with Mus musculus [2] was Active. Moreover, the outcome with Mus musculus [3] was inactive.

On to `CC(C)C[C@H](NC(=O)[C@@H]1CCCN1)C(=O)N1CCSC1C(N)=O` (stereo in doubt; 9), for which the result in the experiment with Mus musculus [5] was Active. In addition, the result in the experiment with Mus musculus [3] was inactive.
